One assay addresses T1, Human β2 adrenoceptor (Homo sapiens, UniProt P07550).
T1 construct: purchased Perkin Elmer
The assay can be described thus: β2 Adrenoceptor Radioligand Binding Assay. As to conditions: human β2 adrenoceptor membranes, 125-I Cyanopindolol; read-out: B2 binding affinity (Ki class). As to the method: β2 Adrenoceptor Radioligand Binding Assay
The assay was carried out in 96-well polypropylene plates in a volume of 200 ul. The assay buffer used was 25 mM HEPES, 0.5% BSA (w/v), 1 mM EDTA, 0.02% ascorbic acid (v/v), (pH 7.4). The final assay concentration of DMSO was 0.5% (v/v). The plates were sealed and incubated for 1 h at room temperature on an orbital shaker (slow speed). Membranes were harvested onto 96-well unifilter GF/C filter plates pre-treated with 0.5% polyethyleneimine (v/v), using a filter manifold, washed six times with 200 ul of wash buffer containing 10 mM HEPES and 500 mM NaCl. The plates were dried before addition of 50 μl of microscint-0, sealed then read in a Trilux Microbeta scintillation counter. IC50 values are determined from competition curves using a non-linear curve fitting program. Ki values were calculated from IC50 values by the Cheng and Prusoff equation.

In a further assay the target is T2, Human M3 receptor (Homo sapiens, UniProt P20309).
T2 construct: purchased Perkin Elmer
T2 sequence (P20309 whole entry): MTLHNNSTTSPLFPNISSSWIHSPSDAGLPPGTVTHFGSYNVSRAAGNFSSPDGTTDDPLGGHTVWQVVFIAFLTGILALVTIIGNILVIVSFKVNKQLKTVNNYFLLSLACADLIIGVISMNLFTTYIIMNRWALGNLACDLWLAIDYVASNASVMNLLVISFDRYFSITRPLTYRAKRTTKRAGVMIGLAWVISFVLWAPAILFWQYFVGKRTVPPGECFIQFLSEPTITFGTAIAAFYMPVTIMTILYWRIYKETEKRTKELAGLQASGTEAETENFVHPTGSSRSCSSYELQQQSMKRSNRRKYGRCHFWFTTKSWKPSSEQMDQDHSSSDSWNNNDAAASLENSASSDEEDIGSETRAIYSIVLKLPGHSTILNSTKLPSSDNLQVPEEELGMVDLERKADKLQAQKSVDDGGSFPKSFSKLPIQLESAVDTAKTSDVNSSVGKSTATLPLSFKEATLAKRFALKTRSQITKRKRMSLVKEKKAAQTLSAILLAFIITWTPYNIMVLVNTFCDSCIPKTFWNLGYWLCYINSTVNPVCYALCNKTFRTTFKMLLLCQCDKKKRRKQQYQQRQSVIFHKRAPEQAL
The assay can be described thus: M3 Receptor Radioligand Binding Assay. Particulars: human M3 receptor membranes, [3H]-N-methyl scopolamine; read-out: M3 binding affinity (Ki class). As to the method: Biological Characterization M3 Receptor Radioligand Binding Assay
The assay was carried out in 96-well polypropylene plates in a volume of 250 ul. […] The final assay concentration of DMSO was 0.5% (v/v). The plates were sealed and incubated for 2 h at room temperature on an orbital shaker (slow speed). Membranes were harvested onto 96-well unifilter GF/C filter plates pre-treated with 0.5% polyethyleneimine (v/v), using a filter manifold, washed four times with 200 ul of assay buffer. The plates were dried before addition of 50 μl of microscint-0, sealed then read in a Trilux Microbeta scintillation counter.

Some results are limits rather than exact numbers.

T1 sequence (P07550 whole entry): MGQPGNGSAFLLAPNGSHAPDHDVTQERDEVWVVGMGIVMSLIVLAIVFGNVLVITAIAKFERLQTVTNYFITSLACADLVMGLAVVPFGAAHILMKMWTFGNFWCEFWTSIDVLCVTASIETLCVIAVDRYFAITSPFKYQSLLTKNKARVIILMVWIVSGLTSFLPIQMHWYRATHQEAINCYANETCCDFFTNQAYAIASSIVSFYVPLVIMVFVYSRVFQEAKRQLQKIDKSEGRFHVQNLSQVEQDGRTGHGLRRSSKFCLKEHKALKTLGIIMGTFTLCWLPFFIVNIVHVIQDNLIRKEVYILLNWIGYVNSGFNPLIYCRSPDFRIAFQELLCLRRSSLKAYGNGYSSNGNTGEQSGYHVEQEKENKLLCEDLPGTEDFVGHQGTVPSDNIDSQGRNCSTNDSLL

One may read the Ki as a measure of affinity in units of concentration, obtained from inhibition or displacement. Turning to `O=C(c1ccc(OCCCCCNC[C@H](O)c2ccc(O)c3[nH]c(=O)ccc23)cc1)N1CCC(C(=O)O[C@H]2CN3CCC2CC3)(c2ccccc2)CC1` [Compound 1, (R)-Quinuclidin-3-yl 1-(4-((5-(((R)-2-hydroxy-2-(8-hydroxy-2-oxo-1,2-dihydroquinolin-5-yl)ethyl)amino)pentyl)oxy)benzoyl)-4-phenylpiperidine-4-carboxylate], the Ki on Human β2 adrenoceptor and on Human M3 receptor was under 1 nM in each case.

Consider `O=C(c1ccc(OCCCCCNC[C@H](O)c2ccc(O)c3[nH]c(=O)ccc23)cc1)N1CC(C(=O)O[C@H]2CN3CCC2CC3)(c2ccccc2)C1` [Compound 1A, (R)-Quinuclidin-3-yl 1-(4-((5-(((R)-2-hydroxy-2-(8-hydroxy-2-oxo-1,2-dihydroquinolin-5-yl)ethyl)amino)pentyl)oxy)benzoyl)-3-phenylazetidine-3-carboxylate], for which the Ki on Human β2 adrenoceptor was under 1 nM; at Human M3 receptor, 1 to 10 nM.

As to `O=C(c1cccc(OCCCCCNC[C@H](O)c2ccc(O)c3[nH]c(=O)ccc23)c1)N1CCC(C(=O)O[C@H]2CN3CCC2CC3)(c2ccccc2)CC1` [Compound 2, (R)-Quinuclidin-3-yl 1-(3-((5-(((R)-2-hydroxy-2-(8-hydroxy-2-oxo-1,2-dihydroquinolin-5-yl)ethyl)amino)pentyl)oxy)benzoyl)-4-phenylpiperidine-4-carboxylate], the figures for the Ki at Human β2 adrenoceptor and on Human M3 receptor were under 1 nM and 1 to 10 nM, respectively.

For `O=C(c1ccc(OCCCCCCNC[C@H](O)c2ccc(O)c3[nH]c(=O)ccc23)cc1)N1CC(C(=O)O[C@H]2CN3CCC2CC3)(c2ccccc2)C1` [Compound 2A, (R)-Quinuclidin-3-yl 1-(4-((6-(((R)-2-hydroxy-2-(8-hydroxy-2-oxo-1,2-dihydroquinolin-5-yl)ethyl)amino)hexyl)oxy)benzoyl)-3-phenylazetidine-3-carboxylate], the Ki on Human β2 adrenoceptor and at Human M3 receptor was under 1 nM each time.

For `COc1cc(C(=O)N2CCC(C(=O)O[C@H]3CN4CCC3CC4)(c3ccccc3)CC2)ccc1OCCCCCNC[C@H](O)c1ccc(O)c2[nH]c(=O)ccc12` [Compound 3, (R)-Quinuclidin-3-yl 1-(4-((5-(((R)-2-hydroxy-2-(8-hydroxy-2-oxo-1,2-dihydroquinolin-5-yl)ethyl)amino)pentyl)oxy)-3-methoxybenzoyl)-4-phenylpiperidine-4-carboxylate], the Ki was under 1 nM at Human β2 adrenoceptor and 1 to 10 nM at Human M3 receptor.

With `O=C(c1ccc(OCCCCCCNC[C@H](O)c2ccc(O)c3[nH]c(=O)ccc23)cc1)N1CC(C(=O)O[C@H]2CN3CCC2CC3)(c2ccc(F)cc2)C1` [Compound 3A, (R)-Quinuclidin-3-yl 3-(4-fluorophenyl)-1-(4-((6-(((R)-2-hydroxy-2-(8-hydroxy-2-oxo-1,2-dihydroquinolin-5-yl)ethyl)amino)hexyl)oxy)benzoyl)azetidine-3-carboxylate], the Ki at Human β2 adrenoceptor was under 1 nM; at Human M3 receptor, 1 to 10 nM.

As to `O=C(c1ccc(OCCCCCNC[C@H](O)c2ccc(O)c3[nH]c(=O)ccc23)c(Cl)c1)N1CCC(C(=O)O[C@H]2CN3CCC2CC3)(c2ccccc2)CC1` [Compound 4, (R)-Quinuclidin-3-yl 1-(4-((5-(((R)-2-hydroxy-2-(8-hydroxy-2-oxo-1,2-dihydroquinolin-5-yl)ethyl)amino)pentyl)oxy)-3-chlorobenzoyl)-4-phenylpiperidine-4-carboxylate], the Ki at Human β2 adrenoceptor is under 1 nM; on Human M3 receptor, 1 to 10 nM.

As for `O=C(c1cccc(OCCCCCNC[C@H](O)c2ccc(O)c3[nH]c(=O)ccc23)c1)N1CC(C(=O)O[C@H]2CN3CCC2CC3)(c2ccccc2)C1` [Compound 4A, (R)-Quinuclidin-3-yl 1-(3-((5-(((R)-2-hydroxy-2-(8-hydroxy-2-oxo-1,2-dihydroquinolin-5-yl)ethyl)amino)pentyl)oxy)benzoyl)-3-phenylazetidine-3-carboxylate], the Ki on Human β2 adrenoceptor was under 1 nM; on Human M3 receptor, 1 to 10 nM.

For `O=C(c1cc(Cl)c(OCCCCCNC[C@H](O)c2ccc(O)c3[nH]c(=O)ccc23)c(Cl)c1)N1CCC(C(=O)O[C@H]2CN3CCC2CC3)(c2ccccc2)CC1` [Compound 5, (R)-Quinuclidin-3-yl 1-(3,5-dichloro-4-((5-(((R)-2-hydroxy-2-(8-hydroxy-2-oxo-1,2-dihydroquinolin-5-yl)ethyl)amino)pentyl)oxy)benzoyl)-4-phenylpiperidine-4-carboxylate], the Ki at Human β2 adrenoceptor and at Human M3 receptor was 1 to 10 nM each time.

For `O=C(CCc1ccc(OCCCCCNC[C@H](O)c2ccc(O)c3[nH]c(=O)ccc23)cc1)N1CC(C(=O)O[C@H]2CN3CCC2CC3)(c2ccccc2)C1` [Compound 5A, (R)-Quinuclidin-3-yl 1-(3-(4-((5-(((R)-2-hydroxy-2-(8-hydroxy-2-oxo-1,2-dihydroquinolin-5-yl)ethyl)amino)pentyl)oxy)phenyl)propanoyl)-3-phenylazetidine-3-carboxylate], the Ki on Human β2 adrenoceptor was under 1 nM; at Human M3 receptor it was 1 to 10 nM.

For `O=C(c1ccc(OCCCCCNC[C@H](O)c2ccc(O)c3[nH]c(=O)ccc23)c(-c2ccsc2)c1)N1CCC(C(=O)O[C@H]2CN3CCC2CC3)(c2ccccc2)CC1` [Compound 6, (R)-Quinuclidin-3-yl 1-(4-((5-(((R)-2-hydroxy-2-(8-hydroxy-2-oxo-1,2-dihydroquinolin-5-yl)ethyl)amino)pentyl)oxy)-3-(thiophen-3-yl)benzoyl)-4-phenylpiperidine-4-carboxylate], the Ki on Human β2 adrenoceptor was under 1 nM; at Human M3 receptor, over 10 nM.

As for `O=C(Cc1ccc(OCCCCCNC[C@H](O)c2ccc(O)c3[nH]c(=O)ccc23)cc1)N1CC(C(=O)O[C@H]2CN3CCC2CC3)(c2ccccc2)C1` [Compound 6A, (R)-Quinuclidin-3-yl 1-(2-(4-((5-(((R)-2-hydroxy-2-(8-hydroxy-2-oxo-1,2-dihydroquinolin-5-yl)ethyl)amino)pentyl)oxy)phenyl)acetyl)-3-phenylazetidine-3-carboxylate], the Ki is under 1 nM at Human β2 adrenoceptor and 1 to 10 nM on Human M3 receptor.

In the case of `O=C(CCc1ccc(OCCCCCNC[C@H](O)c2ccc(O)c3[nH]c(=O)ccc23)cc1)N1CCC(C(=O)O[C@H]2CN3CCC2CC3)(c2ccccc2)CC1` [Compound 7, (R)-Quinuclidin-3-yl 1-(3-(4-((5-(((R)-2-hydroxy-2-(8-hydroxy-2-oxo-1,2-dihydroquinolin-5-yl)ethyl)amino)pentyl)oxy)phenyl)propanoyl)-4-phenylpiperidine-4-carboxylate], the Ki on Human β2 adrenoceptor and on Human M3 receptor was under 1 nM in each case.

For the molecule `O=C(c1ccc(OCc2cccc(OCCCCNC[C@H](O)c3ccc(O)c4[nH]c(=O)ccc34)c2)cc1)N1CC(C(=O)O[C@H]2CN3CCC2CC3)(c2ccccc2)C1` [Compound 7A, (R)-Quinuclidin-3-yl 1-(4-((3-(4-(((R)-2-hydroxy-2-(8-hydroxy-2-oxo-1,2-dihydroquinolin-5-yl)ethyl)amino)butoxy)benzyl)oxy)benzoyl)-3-phenylazetidine-3-carboxylate], the values for the Ki at Human β2 adrenoceptor and at Human M3 receptor were under 1 nM and 1 to 10 nM, respectively.

`O=C(Cc1ccc(OCCCCCNC[C@H](O)c2ccc(O)c3[nH]c(=O)ccc23)cc1)N1CCC(C(=O)O[C@H]2CN3CCC2CC3)(c2ccccc2)CC1` [Compound 8, (R)-Quinuclidin-3-yl 1-(2-(4-((5-(((R)-2-hydroxy-2-(8-hydroxy-2-oxo-1,2-dihydroquinolin-5-yl)ethyl)amino)pentyl)oxy)phenyl)acetyl)-4-phenylpiperidine-4-carboxylate]: the Ki on Human β2 adrenoceptor and at Human M3 receptor was under 1 nM each time.

For `O=C(c1ccc(OCc2ccc(CNC[C@H](O)c3ccc(O)c4[nH]c(=O)ccc34)cc2)cc1)N1CC(C(=O)O[C@H]2CN3CCC2CC3)(c2ccccc2)C1` [Compound 8A, (R)-Quinuclidin-3-yl 1-(4-((4-((((R)-2-hydroxy-2-(8-hydroxy-2-oxo-1,2-dihydroquinolin-5-yl)ethyl)amino)methyl)benzyl)oxy)benzoyl)-3-phenylazetidine-3-carboxylate], the Ki at Human β2 adrenoceptor and on Human M3 receptor was under 1 nM in each case.

On to `O=C(c1ccc(OCCCCCNC[C@H](O)c2ccc(O)c3[nH]c(=O)ccc23)c(F)c1)N1CCC(C(=O)O[C@H]2CN3CCC2CC3)(c2ccccc2)CC1` [Compound 9, (R)-Quinuclidin-3-yl 1-(3-fluoro-4-((5-(((R)-2-hydroxy-2-(8-hydroxy-2-oxo-1,2-dihydroquinolin-5-yl)ethyl)amino)pentyl)oxy)benzoyl)-4-phenylpiperidine-4-carboxylate], for which the results for the Ki on Human β2 adrenoceptor and at Human M3 receptor were over 10 nM and 1 to 10 nM, respectively.

Take `O=C(NCc1ccc(CNC[C@H](O)c2ccc(O)c3[nH]c(=O)ccc23)cc1)c1ccc(C(=O)N2CC(C(=O)O[C@H]3CN4CCC3CC4)(c3ccccc3)C2)cc1` [Compound 9A, (R)-Quinuclidin-3-yl 1-(4-((4-((((R)-2-hydroxy-2-(8-hydroxy-2-oxo-1,2-dihydroquinolin-5-yl)ethyl)amino)methyl)benzyl)carbamoyl)benzoyl)-3-phenylazetidine-3-carboxylate]: the Ki at Human β2 adrenoceptor is 1 to 10 nM; on Human M3 receptor, under 1 nM.
